US11135223B2, “Compositions and methods for inhibiting Dkk-1” (YALE UNIVERSITY, priority 2016, dated 2021)

Tested on: leukocyte-platelet aggregate (CD45+CD41+ population)
Experiment: Leukocyte-platelet aggregate (LPA) formation and PSGL-1 expression in peripheral blood, L. major infection
Assay type: in vivo, mice
From the text: FIG. 12, comprising FIG. 12A through FIG. 12G, depicts results of experiments showing regulation of LPA formation by Dkk-1. FIG. 12A depicts AMNIS analysis of peripheral blood from 6-week old C57BL/6 male mice. FIG. 12B depicts flow cytometry analysis of the basal LPA population (CD45^+CD41^+) Dkk-1^d/d mice and their wildtype littermate controls. B-cell and CD4 T cell among CD45^+CD41^+ cells were monitored at the indicated time points in Dkk-1^d/d mice and their wildtype littermate controls challenged with 30 μg HDM extract/mouse. FIG. 12C depicts flow cytometry analysis of LPA formation in total CD45^+ cells, CD4 T cells, and neutrophils, in mice injected with Dkk-1 inhibitor (n=5) or DMSO vehicle (n=5) 24 hours prior to infection with L. major. FIG. 12D depicts flow cytometry analysis of peripheral blood at given time points for LPA formation in nine-week old C57BL/6 mice (n=5) injected with 300 ng of Dkk-1. […] Mean fluorescence intensity was normalized to unchallenged C57BL/6 mice. […] Normalized MFI for ICAM-1 expression and the percentages of LFA-1 high cells were measured by flow cytometry following injection of 300 ng of Dkk-1 intraperitoneally. […]
Human platelets were isolated as described from healthy volunteers (Tang et al., 2011, J Clin Invest 121:4462-76). […] Samples were analyzed by flow cytometry within 4 to 6 hours. […]

## NCC1CCN(c2nccc(-c3ccc4ccccc4c3)n2)CC1 [WAY-262611, (1-(4-(naphthalen-2-yl)pyrimidin-2-yl)piperidin-4-yl)methanamine]
L. major infection, peripheral blood
  PSGL-1 expression on leukocytes: blocked the increase
Pretreatment 24 h prior to infection with L. major, 4 h post-infection
  elevation of LPA formation: reduced
